Consider 13 molecules from US20240390340A1 (INCYTE CORPORATION, priority 2023, published 2024).

For one data set, the target named is KRAS G12V (Homo sapiens, UniProt P01116, G12V). Description: GDP-GTP exchange assay (bodipy-GDP/GppNHp, SOS1), KRAS G12V. In kind it is biochemical.
In a further data set the target is KRAS G12D (Homo sapiens, UniProt P01116, G12D). Kind of data set: GDP-GTP exchange assay (bodipy-GDP/GppNHp, SOS1), KRAS G12D. In kind it is biochemical.
A further data set relates to Caco-2 cells. Kind of data set: Caco2 assay (Papp A-B). The data set is classed as in vitro ADME. As to conditions: test compound 50 μM, 120 min, 37° C. On the procedure: Caco-2 cells are grown at 37° C. in an atmosphere of 5% CO2 in DMEM growth medium supplemented with 10% (v/v) fetal bovine serum, 1% (v/v) nonessential amino acids, penicillin (100 U/mL), and streptomycin (100 μg/mL). Confluent cell monolayers are subcultured every 7 days or 4 days for Caco-2 by treatment with 0.05% trypsin containing […]. Caco-2 cells are seeded in 96-well Transwell plates. The seeding density for Caco-2 cells is 14,000 cells/well. DMEM growth medium is replaced every other day after seeding. Cell monolayers are used for transport assays between 22 and 25 days for Caco-2 cells.
Cell culture medium is removed and replaced with HBSS. To measure the TEER, the HBSS is added into the donor compartment (apical side) and receiver compartment (basolateral side). The TEER is measured by using a REMS Autosampler to ensure the integrity of the cell monolayers. Caco-2 cell monolayers with TEER values 300 Ω·cm^2 are used for transport experiments. To determine the Papp in the absorptive direction (A-B), solution of test compound (50 μM) in HBSS is added to the donor compartment (apical side), while HBSS solution with 4% BSA is added to the receiver compartment (basolateral side). The apical volume was 0.075 mL, and the basolateral volume is 0.25 mL. The incubation period is 120 min. at 37° C. in an atmosphere of 5% CO2. At the end of the incubation period, samples from the donor and receiver sides are removed and an equal volume of MeCN is added for protein precipitation. The supernatants are collected after centrifugation (3000 rpm, Allegra X-14R Centrifuge from Beckman Coulter, Indianapolis, IN) for LCMS analysis. The permeability value is determined according to the equation:
[formula] • where the flux rate (F, mass/time) is calculated from the slope of cumulative amounts of compound of interest on the receiver side, SA is the surface area of the cell membrane, VD is the donor volume, and MD is the initial amount of the solution in the donor chamber.
The symbol “+” indicates a Caco-2 value of ≤0.5, “++” indicates a Caco-2 value of >0.5 but ≤1; and “+++” indicates a Caco-2 value of >1. “NA” indicates IC50 not available.

The mark [1] stands for this setting: Table H, column G12V, for compounds isolated as several atropisomers/diastereoisomers the value for the most potent isomer is quoted, read-out: KRAS G12V exchange assay IC50.
Setting [2] is: Table H, column G12D, for compounds isolated as several atropisomers/diastereoisomers the value for the most potent isomer is quoted, read-out: KRAS G12D exchange assay IC50.

Where two headings read alike, the source gives them in different places.

KRAS G12V, sequence (P01116 1-188 isoform P01116-2 G12V): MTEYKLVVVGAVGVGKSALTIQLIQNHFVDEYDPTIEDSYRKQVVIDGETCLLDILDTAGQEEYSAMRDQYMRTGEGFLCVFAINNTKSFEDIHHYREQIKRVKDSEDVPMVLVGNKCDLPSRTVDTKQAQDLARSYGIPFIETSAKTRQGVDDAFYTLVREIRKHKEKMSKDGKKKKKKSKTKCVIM
KRAS G12D, sequence (P01116 1-188 isoform P01116-2 G12D): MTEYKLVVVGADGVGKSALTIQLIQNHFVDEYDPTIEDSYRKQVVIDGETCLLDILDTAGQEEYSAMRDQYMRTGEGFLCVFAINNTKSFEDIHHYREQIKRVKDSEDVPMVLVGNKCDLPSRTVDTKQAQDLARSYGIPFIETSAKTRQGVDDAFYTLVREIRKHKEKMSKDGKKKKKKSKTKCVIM

Consider `Cc1nc2c(F)c(-c3cccc(Cl)c3Cl)c(CCC#N)cc2c2c1cc([C@H]1C[C@H](OCc3cccc(C(F)(F)F)n3)CN1C(=O)C1CC1)n2[C@H]1[C@H]2CN[C@@H]1C2` [Example 10], for which the IC50 at KRAS G12V (setting [1]) and at KRAS G12D (setting [2]) was at most 100 nM in each case. The Caco-2 entry in the data set with Caco-2 cells is “++ (a Caco-2 value of >0.5 but ≤1)”.

Regarding `COC[C@@H]1[C@@H](Oc2cc(OC)ncc2F)C[C@H](c2cc3c([C@@H](C)O)nc4c(F)c(-c5cccc(Cl)c5Cl)c(CCC#N)cc4c3n2[C@H]2[C@H]3CN[C@@H]2C3)N1C(=O)C1CC1` [Example 83], the IC50 on KRAS G12V (KRAS G12V mutant, value for the most potent isomer quoted for certain compounds, read-out: G12V (KRAS G12V exchange assay IC50)) is at most 100 nM; on KRAS G12D (bodipy-loaded KRAS G12D 2.5 nM, 4 h pre-incubation, value for the most potent isomer quoted for certain compounds, read-out: G12D (KRAS G12D exchange assay IC50)) it was at most 100 nM. In addition, the Caco-2 entry in the data set with Caco-2 cells is reported as “++ (a Caco-2 value of >0.5 but ≤1)”.

For the molecule `COc1cccc(O[C@H]2C[C@H](c3cc4c(C)nc5c(F)c(-c6cccc(Cl)c6Cl)c(CCC#N)cc5c4n3[C@H]3[C@H]4CN[C@@H]3C4)N(C(=O)C3CC3)C2)c1` [Example 44, 3-(1-((1R,4R,5S)-2-Azabicyclo[2.1.1]hexan-5-yl)-2-((2R,4S)-1-(cyclopropanecarbonyl)-4-(3-methoxyphenoxy)pyrrolidin-2-yl)-7-(2,3-dichlorophenyl)-6-fluoro-4-methyl-1H-pyrrolo[3,2-c]quinolin-8-yl)propanenitrile], the concentration for half-maximal inhibition (IC50) on KRAS G12V (setting [1]) and on KRAS G12D (setting [2]) was at most 100 nM throughout. The Caco-2 entry with Caco-2 cells is listed as “+ (a Caco-2 value of ≤0.5)”.

As for `C[C@@H]1[C@@H](Oc2c(F)ccnc2Cl)C[C@H](c2cc3c([C@@H](C)O)nc4c(F)c(-c5cccc(Cl)c5Cl)c(CCC#N)cc4c3n2[C@H]2[C@H]3CN[C@@H]2C3)N1C(=O)C1CC1` [Example 64, 3-(1-((1R,4R,5S)-2-Azabicyclo[2.1.1]hexan-5-yl)-2-((2R,4S,5R)-4-((2-chloro-4-fluoropyridin-3-yl)oxy)-1-(cyclopropanecarbonyl)-5-methylpyrrolidin-2-yl)-7-(2,3-dichlorophenyl)-6-fluoro-4-((R)-1-hydroxyethyl)-1H-pyrrolo[3,2-c]quinolin-8-yl)propanenitrile], the IC50 at KRAS G12V (setting [1]) and at KRAS G12D (setting [2]) was at most 100 nM throughout. For the same molecule, the Caco-2 entry in the data set with Caco-2 cells was “+++ (a Caco-2 value of >1)”.

Consider `Cc1nc2c(F)c(-c3cccc(Cl)c3Cl)c(CCC#N)cc2c2c1cc([C@H]1C[C@H](OCc3ccsn3)CN1C(=O)C1CC1)n2[C@H]1[C@H]2CN[C@@H]1C2` [Example 14], for which the 50% inhibitory concentration (IC50) on KRAS G12V (setting [1]) and at KRAS G12D (setting [2]) was at most 100 nM throughout. For the same molecule, the Caco-2 result in the data set on Caco-2 cells is “+ (a Caco-2 value of ≤0.5)”.

In the case of `C[C@@H]1[C@@H](Oc2cc(F)ccn2)C[C@H](c2cc3c([C@@H](C)O)nc4c(F)c(-c5cccc(Cl)c5Cl)c(CCC#N)cc4c3n2[C@H]2[C@H]3CN[C@@H]2C3)N1C(=O)C1CC1` [Example 63, 3-(1-((1R,4R,5S)-2-Azabicyclo[2.1.1]hexan-5-yl)-2-((2R,4S,5R)-1-(cyclopropanecarbonyl)-4-((4-fluoropyridin-2-yl)oxy)-5-methylpyrrolidin-2-yl)-7-(2,3-dichlorophenyl)-6-fluoro-4-((R)-1-hydroxyethyl)-1H-pyrrolo[3,2-c]quinolin-8-yl)propanenitrile], the IC50 at KRAS G12V (setting [1]) and on KRAS G12D (setting [2]) was at most 100 nM in each case. For the same molecule, in the data set with Caco-2 cells, the Caco-2 entry is on record as “++ (a Caco-2 value of >0.5 but ≤1)”.

For the molecule `Cc1nc2c(F)c(-c3cccc(Cl)c3Cl)c(CCC#N)cc2c2c1cc([C@H]1C[C@H](OCc3ccnn3C(F)F)CN1C(=O)C1CC1)n2[C@H]1[C@H]2CN[C@@H]1C2` [Example 8], the IC50 at KRAS G12V (setting [1]) and on KRAS G12D (setting [2]) was at most 100 nM in each case. Further, the Caco-2 result with Caco-2 cells is “+ (a Caco-2 value of ≤0.5)”.

As to `Cc1ccccc1O[C@H]1C[C@H](c2cc3c(C)nc4c(F)c(-c5cccc(Cl)c5Cl)c(CCC#N)cc4c3n2[C@H]2[C@H]3CN[C@@H]2C3)N(C(=O)C2CC2)C1` [Example 28, 3-(1-((1R,4R,5S)-2-azabicyclo[2.1.1]hexan-5-yl)-2-((2R,4S)-1-(cyclopropanecarbonyl)-4-(o-tolyloxy)pyrrolidin-2-yl)-7-(2,3-dichlorophenyl)-6-fluoro-4-methyl-1H-pyrrolo[3,2-c]quinolin-8-yl)propanenitrile], the IC50 at KRAS G12V (setting [1]) and at KRAS G12D (setting [2]) was at most 100 nM in each case. Also, the Caco-2 result with Caco-2 cells is reported as “++ (a Caco-2 value of >0.5 but ≤1)”.

With `Cc1nc2c(F)c(-c3cccc(Cl)c3Cl)c(CCC#N)cc2c2c1cc([C@H]1C[C@H](n3cc(C(C)(C)C)nn3)CN1C(=O)C1CC1)n2[C@H]1[C@H]2CN[C@@H]1C2` [Example 4, 3-(1-((1R,4R,5S)-2-Azabicyclo[2.1.1]hexan-5-yl)-2-((2R,4S)-4-(4-(tert-butyl)-1H-1,2,3-triazol-1-yl)-1-(cyclopropanecarbonyl)pyrrolidin-2-yl)-7-(2,3-dichlorophenyl)-6-fluoro-4-methyl-1H-pyrrolo[3,2-c]quinolin-8-yl)propanenitrile], the concentration for half-maximal inhibition (IC50) at KRAS G12V (setting [1]) and at KRAS G12D (setting [2]) was at most 100 nM in each case. Further, in the data set on Caco-2 cells, the Caco-2 entry is “+++ (a Caco-2 value of >1)”.

On to `Cc1cc(CO[C@H]2C[C@H](c3cc4c(C)nc5c(F)c(-c6cccc(Cl)c6Cl)c(CCC#N)cc5c4n3[C@H]3[C@H]4CN[C@@H]3C4)N(C(=O)C3CC3)[C@@H]2C)ns1` [Example 3], for which the IC50 at KRAS G12V (setting [1]) and at KRAS G12D (setting [2]) was at most 100 nM in each case. Besides, in the data set on Caco-2 cells, the Caco-2 result was “++ (a Caco-2 value of >0.5 but ≤1)”.

As for `Cc1nc2c(F)c(-c3cccc(Cl)c3Cl)c(CCC#N)cc2c2c1cc([C@H]1C[C@H](n3cc(C4CCCCC4)nn3)CN1C(=O)C1CC1)n2[C@H]1[C@H]2CN[C@@H]1C2` [Example 69, 3-(1-((1R,4R,5S)-2-Azabicyclo[2.1.1]hexan-5-yl)-2-((2R,4S)-4-(4-cyclohexyl-1H-1,2,3-triazol-1-yl)-1-(cyclopropanecarbonyl)pyrrolidin-2-yl)-7-(2,3-dichlorophenyl)-6-fluoro-4-methyl-1H-pyrrolo[3,2-c]quinolin-8-yl)propanenitrile], the IC50 on KRAS G12V (setting [1]) and on KRAS G12D (setting [2]) was at most 100 nM each time. The Caco-2 entry with Caco-2 cells was “+ (a Caco-2 value of ≤0.5)”.

Take `Cc1nc2c(F)c(-c3cccc(Cl)c3Cl)c(CCC#N)cc2c2c1cc([C@H]1C[C@H](Oc3cnn(C(F)F)c3)CN1C(=O)C1CC1)n2[C@H]1[C@H]2CN[C@@H]1C2` [Example 48, 3-(1-((1R,4R,5S)-2-Azabicyclo[2.1.1]hexan-5-yl)-2-((2R,4S)-1-(cyclopropanecarbonyl)-4-((1-(difluoromethyl)-1H-pyrazol-4-yl)oxy)pyrrolidin-2-yl)-7-(2,3-dichlorophenyl)-6-fluoro-4-methyl-1H-pyrrolo[3,2-c]quinolin-8-yl)propanenitrile]: the concentration for half-maximal inhibition (IC50) at KRAS G12V (setting [1]) and on KRAS G12D (setting [2]) was at most 100 nM each time. Moreover, the Caco-2 result in the data set on Caco-2 cells is given as “+++ (a Caco-2 value of >1)”.

As for `COc1cc(O[C@H]2C[C@H](c3cc4c([C@@H](C)O)nc5c(F)c(-c6cccc(Cl)c6Cl)c(CCC#N)cc5c4n3[C@H]3[C@H]4CN[C@@H]3C4)N(C(=O)C3(C)CC3)[C@@H]2C)c(F)cn1` [Example 52, 3-(1-((1R,4R,5S)-2-Azabicyclo[2.1.1]hexan-5-yl)-7-(2,3-dichlorophenyl)-6-fluoro-2-((2R,4S,5R)-4-((5-fluoro-2-methoxypyridin-4-yl)oxy)-5-methyl-1-(1-methylcyclopropane-1-carbonyl)pyrrolidin-2-yl)-4-((R)-1-hydroxyethyl)-1H-pyrrolo[3,2-c]quinolin-8-yl)propanenitrile], the IC50 at KRAS G12V (setting [1]) and at KRAS G12D (setting [2]) was at most 100 nM each time. The Caco-2 entry in the data set on Caco-2 cells was “+ (a Caco-2 value of ≤0.5)”.

As usually defined, the IC50 is the concentration needed to halve the response being measured.
